Source: ChEMBL document CHEMBL1649226, “Species identification and antifungal susceptibility patterns of species belonging to Aspergillus section Nigri” (2009)
Starred links: 1 amine or outer side, 2 acyl side, 3 side chain; linkers in the order of their positions; H or OH if unused. Positions of bridges follow the written chain, without caps; N, C: chain ends. Non-standard residues stand in square brackets, D forms with d. Residues, ends and D or L forms follow the SMILES beside them. *: point of attachment. hTyr(3S-OH,4S-OH,3'-OSO3H) = N[C@H](C(=O)O)[C@H](O)[C@@H](O)c1ccc(O)c(OS(=O)(=O)O)c1; Orn(4R-OH,5R-OH) = O=C([C@H](C[C@@H](O)[C@@H](O)N[*:3])N[*:1])[*:2]; Pro(3S-OH,4S-Me) = C[C@H]1CN[C@H](C(=O)O)[C@H]1O; X1 = CCCCCOc1ccc(-c2cc(-c3ccc(C(=O)*)cc3)no2)cc1; Gln(3R-OH) = NC(=O)C[C@@H](O)[C@H](N)C(=O)O; Hyp = O=C(O)[C@@H]1C[C@@H](O)CN1

Tests used:
Type in all cases: functional
Aspergillus niger [1] = experiment: Antifungal activity against Aspergillus niger isolate CM-3236 obtained from respiratory tract infection of patient assessed as inhibition of hyphal growth after 48 hrs; conditions: isolate CM-3236, 48 h, read-out: MEC
Aspergillus niger [2] = experiment: Antifungal activity against Aspergillus niger isolate CM-3257 obtained from respiratory tract infection of patient assessed as inhibition of hyphal growth after 48 hrs; conditions: isolate CM-3257, 48 h, read-out: MEC
Aspergillus niger [3] = experiment: Antifungal activity against Aspergillus niger isolate CM-3506 obtained from respiratory tract infection of patient assessed as inhibition of hyphal growth after 48 hrs; conditions: isolate CM-3506, 48 h, read-out: MEC
Aspergillus tubingensis [4] = experiment: Antifungal activity against Aspergillus tubingensis isolate CM-3507 obtained from respiratory tract infection of patient assessed as inhibition of hyphal growth after 48 hrs; conditions: isolate CM-3507, 48 h, read-out: MEC
Aspergillus tubingensis [5] = experiment: Antifungal activity against Aspergillus tubingensis isolate CM-3585 assessed as inhibition of hyphal growth after 48 hrs; conditions: isolate CM-3585, 48 h, read-out: MEC
Aspergillus niger [6] = experiment: Antifungal activity against Aspergillus niger isolate CM-3586 obtained from catheter of patient assessed as inhibition of hyphal growth after 48 hrs; conditions: isolate CM-3586, 48 h, read-out: MEC
Aspergillus niger [7] = experiment: Antifungal activity against Aspergillus niger isolate CM-3636 obtained from respiratory tract infection of patient assessed as inhibition of hyphal growth after 48 hrs; conditions: isolate CM-3636, 48 h, read-out: MEC
Aspergillus niger [8] = experiment: Antifungal activity against Aspergillus niger isolate CM-3641 obtained from respiratory tract infection of patient assessed as inhibition of hyphal growth after 48 hrs; conditions: isolate CM-3641, 48 h, read-out: MEC
Aspergillus niger [9] = experiment: Antifungal activity against Aspergillus niger isolate CM-3672 obtained from cutaneous layer of patient assessed as inhibition of hyphal growth after 48 hrs; conditions: isolate CM-3672, 48 h, read-out: MEC
Aspergillus niger [10] = experiment: Antifungal activity against Aspergillus niger isolate CM-4004 obtained from assessed as inhibition of hyphal growth after 48 hrs; conditions: isolate CM-4004, 48 h, read-out: MEC
Aspergillus niger [11] = experiment: Antifungal activity against Aspergillus niger isolate CM-4213 obtained from respiratory tract infection of patient assessed as inhibition of hyphal growth after 48 hrs; conditions: isolate CM-4213, 48 h, read-out: MEC
Aspergillus tubingensis [12] = experiment: Antifungal activity against Aspergillus tubingensis isolate CM-4264 obtained from blood culture assessed as inhibition of hyphal growth after 48 hrs; conditions: isolate CM-4264, 48 h, read-out: MEC
Aspergillus tubingensis [13] = experiment: Antifungal activity against Aspergillus tubingensis isolate CM-4296 obtained from respiratory tract infection of patient assessed as inhibition of hyphal growth after 48 hrs; conditions: isolate CM-4296, 48 h, read-out: MEC
Aspergillus niger [14] = experiment: Antifungal activity against Aspergillus niger isolate CM-4316 obtained from respiratory tract infection of patient assessed as inhibition of hyphal growth after 48 hrs; conditions: isolate CM-4316, 48 h, read-out: MEC
Aspergillus tubingensis [15] = experiment: Antifungal activity against Aspergillus tubingensis isolate CM-5094 obtained from respiratory tract infection of patient assessed as inhibition of hyphal growth after 48 hrs; conditions: isolate CM-5094, 48 h, read-out: MEC
Aspergillus niger [16] = experiment: Antifungal activity against Aspergillus niger isolate CM-5095 obtained from respiratory tract infection of patient assessed as inhibition of hyphal growth after 48 hrs; conditions: isolate CM-5095, 48 h, read-out: MEC
Aspergillus tubingensis [17] = experiment: Antifungal activity against Aspergillus tubingensis isolate CM-3123 obtained from respiratory tract infection of patient assessed as inhibition of hyphal growth after 48 hrs; conditions: isolate CM-3123, 48 h, read-out: MEC
Aspergillus tubingensis [18] = experiment: Antifungal activity against Aspergillus tubingensis isolate CM-3810 obtained from respiratory tract infection of patient assessed as inhibition of hyphal growth after 48 hrs; conditions: isolate CM-3810, 48 h, read-out: MEC
Aspergillus tubingensis [19] = experiment: Antifungal activity against Aspergillus tubingensis isolate CM-4003 assessed as inhibition of hyphal growth after 48 hrs; conditions: isolate CM-4003, 48 h, read-out: MEC
Aspergillus tubingensis [20] = experiment: Antifungal activity against Aspergillus tubingensis isolate CM-4005 assessed as inhibition of hyphal growth after 48 hrs; conditions: isolate CM-4005, 48 h, read-out: MEC
Aspergillus tubingensis [21] = experiment: Antifungal activity against Aspergillus tubingensis isolate CM-4688 obtained from respiratory tract infection of patient assessed as inhibition of hyphal growth after 48 hrs; conditions: isolate CM-4688, 48 h, read-out: MEC
Aspergillus foetidus [22] = experiment: Antifungal activity against Aspergillus foetidus isolate CM-5264 obtained from respiratory tract infection of patient assessed as inhibition of hyphal growth after 48 hrs; conditions: isolate CM-5264, 48 h, read-out: MEC
Aspergillus tubingensis [23] = experiment: Antifungal activity against Aspergillus tubingensis isolate CM-3125 obtained from respiratory tract infection of patient assessed as inhibition of hyphal growth after 48 hrs; conditions: isolate CM-3125, 48 h, read-out: MEC
Aspergillus tubingensis [24] = experiment: Antifungal activity against Aspergillus tubingensis isolate CM-3177 obtained from respiratory tract infection of patient assessed as inhibition of hyphal growth after 48 hrs; conditions: isolate CM-3177, 48 h, read-out: MEC
Aspergillus niger [25] = experiment: Antifungal activity against Aspergillus niger isolate CM-3551 obtained from respiratory tract infection of patient assessed as inhibition of hyphal growth after 48 hrs; conditions: isolate CM-3551, 48 h, read-out: MEC
Aspergillus tubingensis [26] = experiment: Antifungal activity against Aspergillus tubingensis isolate CM-3654 obtained from blood culture assessed as inhibition of hyphal growth after 48 hrs; conditions: isolate CM-3654, 48 h, read-out: MEC
Aspergillus tubingensis [27] = experiment: Antifungal activity against Aspergillus tubingensis isolate CM-4000 by broth dilution method assessed as inhibition of hyphal growth after 48 hrs; conditions: isolate CM-4000, 48 h, read-out: MEC
Aspergillus tubingensis [28] = experiment: Antifungal activity against Aspergillus tubingensis isolate CM-4001 assessed as inhibition of hyphal growth after 48 hrs; conditions: isolate CM-4001, 48 h, read-out: MEC
Aspergillus foetidus [29] = experiment: Antifungal activity against Aspergillus foetidus isolate CM-4002 assessed as inhibition of hyphal growth after 48 hrs; conditions: isolate CM-4002, 48 h, read-out: MEC
Aspergillus niger [30] = experiment: Antifungal activity against Aspergillus niger isolate CM-4262 obtained from Ophthalmic assessed as inhibition of hyphal growth after 48 hrs; conditions: isolate CM-4262, 48 h, read-out: MEC
Aspergillus tubingensis [31] = experiment: Antifungal activity against Aspergillus tubingensis isolate CM-4352 obtained from respiratory tract infection of patient assessed as inhibition of hyphal growth after 48 hrs; conditions: isolate CM-4352, 48 h, read-out: MEC
Aspergillus tubingensis [32] = experiment: Antifungal activity against Aspergillus tubingensis isolate CM-4897 obtained from blood culture assessed as inhibition of hyphal growth after 48 hrs; conditions: isolate CM-4897, 48 h, read-out: MEC
Aspergillus tubingensis [33] = experiment: Antifungal activity against Aspergillus tubingensis isolate CM-4899 obtained from respiratory tract infection of patient assessed as inhibition of hyphal growth after 48 hrs; conditions: isolate CM-4899, 48 h, read-out: MEC
Aspergillus foetidus [34] = experiment: Antifungal activity against Aspergillus foetidus isolate CM-4995 obtained from prosthesis assessed as inhibition of hyphal growth after 48 hrs; conditions: isolate CM-4995, 48 h, read-out: MEC

Compound	minimal effective concentration (Aspergillus niger [1]) [µg/mL]	minimal effective concentration (Aspergillus niger [2]) [µg/mL]	minimal effective concentration (Aspergillus niger [3]) [µg/mL]	minimal effective concentration (Aspergillus tubingensis [4]) [µg/mL]	minimal effective concentration (Aspergillus tubingensis [5]) [µg/mL]	minimal effective concentration (Aspergillus niger [6]) [µg/mL]	minimal effective concentration (Aspergillus niger [7]) [µg/mL]	minimal effective concentration (Aspergillus niger [8]) [µg/mL]	minimal effective concentration (Aspergillus niger [9]) [µg/mL]	minimal effective concentration (Aspergillus niger [10]) [µg/mL]	minimal effective concentration (Aspergillus niger [11]) [µg/mL]	minimal effective concentration (Aspergillus tubingensis [12]) [µg/mL]	minimal effective concentration (Aspergillus tubingensis [13]) [µg/mL]	minimal effective concentration (Aspergillus niger [14]) [µg/mL]	minimal effective concentration (Aspergillus tubingensis [15]) [µg/mL]	minimal effective concentration (Aspergillus niger [16]) [µg/mL]	minimal effective concentration (Aspergillus tubingensis [17]) [µg/mL]	minimal effective concentration (Aspergillus tubingensis [18]) [µg/mL]	minimal effective concentration (Aspergillus tubingensis [19]) [µg/mL]	minimal effective concentration (Aspergillus tubingensis [20]) [µg/mL]	further results
CC[C@H](C)C[C@H](C)CCCCCCCCC(=O)N[C@H]1C[C@@H](O)[C@@H](NCCN)NC(=O)[C@@H]2[C@@H](O)CCN2C(=O)[C@H]([C@H](O)CCN)NC(=O)[C@H]([C@H](O)[C@@H](O)c2ccc(O)cc2)NC(=O)[C@@H]2C[C@@H](O)CN2C(=O)[C@H]([C@@H](C)O)NC1=O [CASPOFUNGIN]	0.25	0.25	0.15	0.06	0.37	1	0.25	0.5	0.15	0.1	0.39	0.03	0.25	0.25	0.19	0.25	0.25	0.5	0.25	0.5	minimal effective concentration (Aspergillus tubingensis [21]): 0.18 µg/mL; minimal effective concentration (Aspergillus foetidus [22]): 0.06 µg/mL; minimal effective concentration (Aspergillus tubingensis [23]): 0.05 µg/mL; minimal effective concentration (Aspergillus tubingensis [24]): 0.05 µg/mL; minimal effective concentration (Aspergillus niger [25]): 0.03 µg/mL; minimal effective concentration (Aspergillus tubingensis [26]): 0.14 µg/mL; minimal effective concentration (Aspergillus tubingensis [27]): 0.1 µg/mL; minimal effective concentration (Aspergillus tubingensis [28]): 0.11 µg/mL; minimal effective concentration (Aspergillus foetidus [29]): 0.14 µg/mL; minimal effective concentration (Aspergillus niger [30]): 0.13 µg/mL; minimal effective concentration (Aspergillus tubingensis [31]): 0.15 µg/mL; minimal effective concentration (Aspergillus tubingensis [32]): 0.1 µg/mL; minimal effective concentration (Aspergillus tubingensis [33]): 0.1 µg/mL; minimal effective concentration (Aspergillus foetidus [34]): 0.14 µg/mL
CCCCCOc1ccc(-c2cc(-c3ccc(C(=O)N[C@H]4C[C@@H](O)[C@@H](O)NC(=O)[C@@H]5[C@@H](O)[C@@H](C)CN5C(=O)[C@H]([C@H](O)CC(N)=O)NC(=O)[C@H]([C@H](O)[C@@H](O)c5ccc(O)c(OS(=O)(=O)O)c5)NC(=O)[C@@H]5C[C@@H](O)CN5C(=O)[C@H]([C@@H](C)O)NC4=O)cc3)no2)cc1 [MICAFUNGIN] (X1-[Orn(4R-OH,5R-OH)]T[Hyp][hTyr(3S-OH,4S-OH,3'-OSO3H)][Gln(3R-OH)][Pro(3S-OH,4S-Me)]; lactam 1-C)	0.03	0.03	0.03	0.03	0.03	0.03	0.03	0.03	0.03	0.03	0.03	0.03	0.03	0.03	0.03	0.03	0.03	0.03	0.03	0.03	minimal effective concentration (Aspergillus tubingensis [21]): 0.03 µg/mL; minimal effective concentration (Aspergillus foetidus [22]): 0.03 µg/mL; minimal effective concentration (Aspergillus tubingensis [23]): 0.03 µg/mL; minimal effective concentration (Aspergillus tubingensis [24]): 0.03 µg/mL; minimal effective concentration (Aspergillus niger [25]): 0.03 µg/mL; minimal effective concentration (Aspergillus tubingensis [26]): 0.03 µg/mL; minimal effective concentration (Aspergillus tubingensis [27]): 0.03 µg/mL; minimal effective concentration (Aspergillus tubingensis [28]): 0.03 µg/mL; minimal effective concentration (Aspergillus foetidus [29]): 0.03 µg/mL; minimal effective concentration (Aspergillus niger [30]): 0.03 µg/mL; minimal effective concentration (Aspergillus tubingensis [31]): 0.03 µg/mL; minimal effective concentration (Aspergillus tubingensis [32]): 0.03 µg/mL; minimal effective concentration (Aspergillus tubingensis [33]): 0.05 µg/mL; minimal effective concentration (Aspergillus foetidus [34]): 0.03 µg/mL
